# Reference: a melting point compilation (Tetko et al.; mined from patent text by program, amines drawn as free bases though some values may be those of a salt)
row,melting point [°C],Compound
1,235 to 236,COc1ccc(Cc2ncc(C(=O)O)c3cc(OC)c(OC)cc23)cc1OC
2,< 250,COc1ccc2nc(Cl)c(NN)nc2c1
3,197 to 199,COc1ccc2c(c1)Oc1cccc([N+](=O)[O-])c1N2
4,124 to 126,CCCOc1ccc(OC)cc1-c1ncc(C(=O)OCC)c(=O)[nH]1
5,83 to 85,CSCC(C)(C)NC(=O)c1c(I)cccc1Oc1ncc(C(F)(F)F)cc1Cl
6,196 to 198,CC(C)Oc1ccccc1C1(OC(=O)N2CCN(c3ccncc3)CC2)C(=O)Nc2ccc(Cl)cc21 (centres undefined)
7,213,Nc1nc(-c2ccccc2)c2cc(Cl)cc(Cl)c2n1
8,173,COc1ccc(S(=O)(=O)n2c(=O)n(-c3cccc(Cl)c3)c3cc(Cl)ccc32)c(OC)c1
9,215 to 216,Cc1nnc(-c2ccc3ccn(-c4ccc(S(C)=O)cc4)c3c2)o1 (centres undefined)
10,50,COc1cccc(CCNC(=O)Cc2cccs2)c1
11,142 to 144,COc1cc(OC)cc(C(=CC#N)c2ccc3ncccc3c2)c1
12,131 to 135,COc1ccc(C(=O)Nc2ccc(F)cc2)cc1NS(=O)(=O)c1ccc(C#N)cc1
13,263,Cn1c(=O)c(C#N)c(N2CCN(C(=O)c3ccco3)CC2)c2cc(F)ccc21
14,205 to 206,NC1SC2=CC=CC2=C1C(=O)c1ccc(Br)cc1 (centres undefined)
15,139 to 141,COc1cn(-c2cccc(C(F)(F)F)c2)nc(-c2ccnn2-c2ccccc2)c1=O
16,118 to 120,CC(=O)c1cc(OCC(O)COc2ccc(C#N)cc2)ccc1O (centres undefined)
17,174 to 175,COc1ccc(C(=O)Nc2ccccc2)cc1NC(=S)Nc1ccc(Cl)c([N+](=O)[O-])c1
18,176 to 177,O=C(O)C(=O)c1ccc(OCCOc2cc3ccccc3cc2OCCO)cc1
19,220 to 221,COc1cc(OC)c2cc(-c3ccc(C#N)cc3)oc2c1
20,94.5 to 95,CCN(Cc1ccc(C(=O)O)cc1)c1cc(Br)ccc1OCc1ccccc1
21,258,O=C(Nc1ncco1)c1c(C(F)(F)F)nc2c(C(F)(F)F)cccc2c1O
22,82 to 84,CCOC(=O)Nn1c(C)ccc1C(=O)c1ccccc1Cl
23,171 to 172,CCCCc1n[nH]c(C(=O)OC)c1Cc1ccc(-c2ccccc2-c2nc(=O)s[nH]2)cc1
24,171 to 172,Cc1nc(N2C(=O)N(Cc3ccc(C(F)(F)F)cc3)CC2O)sc1C(=O)NCc1cccnc1 (centres undefined)

row,melting point [°C],Compound
1,110 to 115,CC(C)[C@H](NC(=O)Cc1cc(F)cc(F)c1)C(=O)N[C@@H]1C(=O)Nc2ccccc2S[C@@H]1c1ccccc1
2,170 to 172,Oc1cccc(Cc2n[nH]c3ccccc23)c1
3,100,COc1ccc(S(=O)(=O)N(CCNC(=O)NCc2ccccc2)c2ccc(C)cc2Cc2c(F)cccc2F)cc1OC
4,230 to 232,Cc1nc2ccc(CN(CCO)c3ccc(C(=O)NCc4cccc([N+](=O)[O-])c4)cc3)cc2c(=O)[nH]1
5,208 to 209,CCCCOc1nc(N)c2[nH]c(=O)n(CCCNc3cccc(CC(=O)OC)c3)c2n1
6,146 to 148,CC(C)(C)c1cc(SCCC(=O)NCC(=O)c2ccccc2)cc(C(C)(C)C)c1O
7,148 to 150,COc1ccc(/C=C/S(=O)(=O)CS(=O)(=O)/C=C/c2ccc(OC)c(O)c2)cc1O
8,161 to 165,COc1cc2c(c3c1OC(C)(C)C3)C(c1cccc(-c3ccc(C(=O)O)cc3)c1)=NC(C)(C)C2
9,67 to 69,COCc1cc(Cl)c2cccc(OC)c2n1
10,302 to 303,Cc1c(NC(=O)c2ccc(C(C)(C)C)cc2)nc2ccc(-n3ccnc3)nn12
11,186 to 189,COC(=O)c1cc2cc(OC)c(OC)cc2c(-c2ccnc(-n3c(=O)cc(OCC(=O)OCc4ccccc4)c4ccccc43)c2)c1C(=O)OC
12,188,CCCc1nc2c(NOC)nc(C(c3ccccc3)(c3ccccc3)c3ccccc3)nc2n1CO
13,125 to 126,COc1ccc(C(=O)NCCCCOc2ccc(-n3ccnc3)cc2)cc1
14,90 to 92,Cc1cc(SCC#Cc2ccccc2)ccc1OCC(=O)O
15,204 to 206,COc1ccc(S(=O)(=O)Nc2cccc(C)c2NC(=O)c2ccc(F)cc2)cc1
16,118 to 120,CCNC(=O)Nc1cccc(Oc2nnc([C@@H](C)NS(=O)(=O)c3ccc(Cl)c(Cl)c3)n2CC)c1
17,208 to 210,COc1ccc2c(Nc3ccc(Cl)cc3F)c(C#N)cnc2c1
18,233 to 234,N#CCCNC(=O)Cc1c(C(=O)c2ccccc2)[nH]c2cc(Cl)ccc12
19,58 to 60,CCOC(=O)C(Cc1ccc(OCCN2CCC(C)(C)c3cc(C(=NOC)c4ccccc4)ccc32)cc1)OCC(F)(F)F (centres undefined)
20,209 to 211,O=C1NN=C(c2cc3ccccc3o2)CO1
21,254 to 257,CC(C)C1=C(C#N)C(c2cccc(N3CCOCC3)c2)c2c[nH]nc2N1 (centres undefined)
22,> 250,COc1cccc(NC(=O)N[C@H]2C[C@@](N)(C(=O)O)[C@@H]3[C@@H](C(=O)O)[C@@H]32)c1 (relative stereo)
23,132 to 133,O=C(O)CCc1cn(Cc2ccc(OCc3csc(-c4ccccc4)n3)cc2)nc1-c1ccccc1

# The remaining lines, values behind:
row,Compound,melting point [°C]
1,FC(F)(F)c1ccc(-c2nccc(CBr)n2)cc1,125
2,O=C(O)COc1cccnc1Br,172 to 174
3,Cc1cc(-n2c(=O)[nH]c3ccccc32)cc2c1NC(=O)CC2C (centres undefined),250 to 254
4,O=C(/C=C/c1cccc(S(=O)(=O)N2CCN(c3cccc([N+](=O)[O-])c3)CC2)c1)NO,162
5,COC(=O)[C@H](COCc1ccccc1)NC(=O)Nc1n[nH]c(=S)s1,84 to 86
6,CC(COc1ccc(-n2cncn2)cc1)(NS(=O)(=O)Cc1ccccc1)C(N)=O (centres undefined),195 to 198
7,CCCCC1(CCCC)Cc2c(O)cccc2C1=O,114 to 115
8,CC(=O)c1cccc2nc(SCCCN3CCCN(CC(=O)Nc4c(C(C)C)cccc4C(C)C)CC3)oc12,86 to 88
9,CCCc1nc2ccc(Cl)nc2c(=O)[nH]1,264 to 266
10,CC12CCC3C(CC=C4CC(O[Si](C)(C)C)CCC43C)C1CCC2=O (centres undefined),173 to 174
11,CCCCc1nc2c(N)nc3ccccc3c2n1CCCCC(N)=O,219 to 221
12,O=C1CCC(N2Cc3cc(CNC(=O)Nc4cc(Cl)ccc4Cl)ccc3C2=O)C(=O)N1 (centres undefined),269 to 271
13,Cc1ccc(CSCc2ccc(C)cc2)cc1,74 to 76
14,CCC(C)(C)c1ccc(OCCCCNC(=O)CS(=O)(=O)c2ccc([N+](=O)[O-])cc2)c(C(C)(C)CC)c1,36 to 37
15,CC(C)c1c(Sc2cccc(Cl)c2)nc(CO)n1C,105 to 106
16,CCCCCC#CCOc1ccc2ccc(=O)oc2c1,74 to 75
17,Cc1c[nH]c2c1CC1CNCCC1C2 (centres undefined),151 to 153
18,CN(C)c1c(C=O)n(C)c(=O)n1-c1cccc(C(F)(F)F)c1,87 to 90
19,C=CCN(CC=C)C(=O)n1cnc(S(C)(=O)=O)n1,52 to 54
20,CCOCC(=O)c1cc(C(C)(C)C)c(O)c(C(C)(C)C)c1,73 to 75
21,CC(=O)Nc1ccc(C=CC2=NNC(=O)C(C)(C)C2)cc1,255 to 257
22,CSCC[C@H](NC(=O)C1(CS)Cc2ccccc2C1)C(=O)O,68 to 69
23,CC(C)C[C@H](NC(=O)OCc1ccccc1)C(=O)N[C@@H](Cc1ccccc1)C(=O)CN1CCN(C)CC1,99 to 100
24,Cc1c(Cl)nnc(Cl)c1Cl,67.5 to 70
25,CNC(=O)c1ccncc1I,132 to 133
26,C[C@@H](Cn1ncc2ccc3oc(C(N)=O)nc3c21)N=[N+]=[N-],162 to 164

row,Compound,melting point [°C]
1,CC(C)(O)Cc1ccc(N)cc1,107 to 108
2,Nc1cccc(-c2ccc(CCN3CC4C(N)C4C3)cc2)n1 (centres undefined),187 to 190
3,COc1ccccc1SCC(=O)NCCCCCC(=O)O,95 to 97
4,Nc1nc(Cl)cc(OCC2(CO)CCC2)n1,125 to 127
5,COc1cc(N2CCN(CCC3CN(C)C(=O)O3)CC2)cc(OC)c1OC (centres undefined),86 to 88
6,CCCCCCCCCCCCCCCCOC[C@@H]1OCC[C@H]1OP(=O)([O-])OCC[N+](C)(C)C (relative stereo),213 to 223
7,Cc1ccc(S(=O)(=O)OCCc2ccc3[nH]cc(S(=O)(=O)c4ccccc4)c3c2)cc1,60 to 63
8,O=C(O)Cc1ccccc1SCc1ccc(Cl)cc1,149 to 151
9,CC(O)=C1C(=O)CC(c2ccccc2C)CC1=O (centres undefined),78 to 81
10,CCCCc1ncc(/C=C(\Cc2ccsc2)c2nnn[nH]2)n1Cc1ccccc1Cl,142 to 144
11,Cc1nn(-c2cc(Oc3ccc(O)cn3)c(Cl)cc2F)c(=O)n1C(F)F,179 to 181
12,S=C(NCCC1=CCCCC1)Nc1nccs1,147 to 148
13,CSC1=CNSC1(C#N)SC (centres undefined),63.5 to 64
14,O=C1NC2(CCc3ccccc32)c2ccccc21 (centres undefined),205 to 206
15,Clc1ccc(Oc2nc(Cl)nc(Cl)n2)c(Cl)c1,120 to 122
16,O=S(=O)(CC=Cc1ccccc1)CCCOC1CCCCO1 (centres undefined),45
17,Cc1cc(N)c(NC(=O)OC(C)(C)C)cc1C(F)(F)F,144
18,CCCCC[C@@H](C)C[C@H](CN)CC(=O)O,174 to 175
19,CONC(=O)Nc1ccc(-c2sc3c(c2CCl)c(=O)n(-c2ccccc2)c(=O)n3Cc2c(F)cccc2F)cc1,217 to 219
20,CN(C)Cc1cc2c(cc1O)CCC1C2CCC2(C)C(=O)CCC12 (centres undefined),172 to 173
21,CC(=O)N1CCC(N2C(=O)CN=C(c3ccccc3)c3ccccc32)CC1,208 to 209
22,CC(=O)OCC(OC(C)=O)c1nc2c(C(F)(F)F)cccc2c(O)c1C(=O)Nc1nccs1 (centres undefined),270
23,CCCc1c(CSc2nnc(SCCCS(=O)CC(=O)O)s2)ccc(C(C)=O)c1O (centres undefined),107 to 110
24,NS(=O)(=O)c1c(Cl)cccc1CN1CCOC1=O,200 to 201
25,C[Si](C)(C)CCCOc1ccc(O)c(C(=O)O)c1,115 to 116
26,O=c1oc(-c2ccc(NS(=O)(=O)c3ccccc3)cc2)cc(O)c1SCCc1ccccc1,89 to 91
